Read-outs that look alike come from different tables or passages of the source. One block for each compound: values may come before it.
Legend:
human erythrocytes = test: Erythrocyte lysis (light scattering, hemoglobin release, cell counts); assay type: cell-based; settings: for time for which erythrocytes are stable: solutions containing either DAPG or CHD alone
Experimental: The putative product shown in Reaction Scheme 1 is evidently cytotoxic, since a suspension of human erythrocytes in a solution containing both CHD and DAPG in phosphate buffered saline is 95% lysed or aggregated within 1-14 hours under physiological conditions (the precise time depending on the concentrations) whereas erythrocytes are stable for at least 24 hours in plain PBS, and also in solutions containing either DAPG or CHD alone. In addition, when erythrocytes are incubated with mixtures of CHD and DAPG, a substantial induction period is observed during which no lysis or aggregation occurs, due to the time lag in formation of the cytotoxic material. Whether lysis or aggregation results depends on relative concentration; excess CHD results in lysis, equimolar concentrations in aggregation. The cytotoxicity may be due to the formation of the polycation, analogous to the known antitumor activity of poly-(L-lysine); Arnold, L. J. Proc. Natl Acad Sci (supra).
For erythrocytes blood was collected and stored with KEDTA at 4°C and erythrocytes prepared within 48 hours by centrifuging three times in phosphate-buffered saline (PBS, pH 7.4). Suspensions containing 3 x 10⁷ cells/ml were prepared in PBS containing 1% EtOH, but no […] cations, and incubated at 37°C with the compounds or mixtures to be tested.
On the other hand, while a mixture of 28 µM AOG and 28 µM decanal (reagent grade, Aldrich Chemical Co.) results in less than 10% lysis within the same 20 minute time frame, as the time of incubation increases, lysis increases also, as indicated by hemoglobin release measured by (1) light absorption of the supernatant at 400 nm. (2) decrease of light scattering by the cells at 700 nm, and (3) direct cell counts using a microscope. […] Suspensions of 3.5 x 10⁷ cells/ml prepared as above in PBS (1% EtOH, no divalent cations, pH 7.4) were incubated at 37°C, and cell lysis was followed by observing the decrease in absorbance at 700 nm. For 0% lysis, A₇₀₀ is 1.0; 0.2 for 100% lysis).
The curves were calculated using a nonlinear least squares fitting algorithm (Arc, H, et al, Statistical Methods (1970) Harper & Row, pp. 100-111) and based on a modified Hill equation (Cantor, C.R. et al, supra) wherein percent hemolysis is calculated as 100% divided by (1+(K/C))^α [formula] . In this equation, K is the median effect concentration, C is the concentration of DIOG (or of decanal and AOG), and α is the Hill constant.

[1] = system: S. typhimurium strain 14028R; test: Suspension culture CFU at pH 5 versus pH 7.4; assay type: cell-based; settings: NFZ alone at 10 µM; 20 hours at 37°C in PBS, 1% DMSO
Experimental: This selectivity was also shown in suspension cultures when S. typhimurium strain 14028R was incubated for 20 hours at 37°C in PBS at either pH 5 or pH 7.4 containing 1% DMSO. When no drugs were added, the culture contained 8 x 10⁶ colony forming units (CFU)/ml for pH 5 and 1.5 x 10⁷ CFU/ml for pH 7.4. The self assembling drugs tested in this instance were semicarbazide (SC), […] (NFA) and their reaction product nitrofurazone (NFZ). Either the […] product, or mixtures of various concentrations of the precursors NC + NA were added after inoculation of the medium. While the maximum toxic selectivity (the ratio of CFU/ml at pH 7.4 as compared to CFU/ml at pH 5) observed for, NFZ alone, at 10 µM was about 100, a mixture of 1500 µM SC + 7 µM NFA gave a toxic selectivity ratio of over 8000.

Monilinia sp = test: Fungal growth on YPD medium; assay type: cell-based; settings: 2 mM of either reagent alone
Experimental: Similar results are obtained using Candida albicans, a human infective agent, as the target organism. […] Also, the growth of Monilinia sp, the causal agent in peach brown rot, is inhibited by the combination of the foregoing reagents, but not by either individually. No growth is observed after four days on YPD medium when 250 µM each of the pyridine-2-carboxaldehyde and 2-hydrazinopyridine are included.

S. cerevisiae YP52 = test: Growth inhibition of yeast by PC and HP in YPD medium, roller drum; assay type: cell-based; settings: each alone, concentrations below 2 mM, 20 hours at 30°C in YPD medium
Experimental: Pyridine-2-carboxaldehyde (PC) and 2-hydrazino-pyridine (HP) are each alone nontoxic to S. cerevisiae YP52 yeast at concentrations below 2 mM when provided over 20 hours at 30°C in YPD medium in a roller drum. However, when supplied together, these compounds are capable of inhibiting the growth of S. cerevisiae YP52 at 30 °C in YPD. When placed together in the medium at concentrations of 1 mM + 1 mM and at 0.5 mM + 0.5 mM. substantial inhibition occurs. The adduct. pyridino-2-carboxaldehyde (2-pyridyl hydrazone) (PCPH) of the formula: [drawing 25] is a chelator and has a structural similarity to 2,2': 6',2'' terpyridine which is a known cytotoxin (McFadyen et al, J Med Chem (1985) 28:1113-1116). The second order rate constant for this reaction is 2 l/mol-sec at 37 °C, pH6, in phosphate-buffered saline.

S. typhimurium = test: Filter disk growth inhibition on agar LB plates at pH 7.4 and pH 5; assay type: cell-based, Salmonella typhimurium; settings: 20 nanomoles on filter disk
Source text: The formation of the foregoing chelate is also effective in inhibiting the growth of Salmonella typhimurium. This inhibition can be tested using agar disks or in culture suspension. The effect of the formation of chelate can be studied in this regard by conducting the experiments at pH 5 and pH 7.4; at pH 5 the formation of the chelate is encouraged while at […] the reaction rate is much slower.
The inhibition was spread between the disks rather than circling each disk as was the case for the PCPH inhibition. Thus, control of pH is a selective factor in controlling the self-assembly of the cytotoxic chelator.

Erythrocytes = test: Antidote to self assembly, erythrocyte lysis; assay type: cell-based
Experimental: In this example, cyclohexanone is used as an antidote to prevent the assembly of AOG plus decanal to produce the biologically active agent DIOG, which was described in a previous example. Erythrocytes, prepared as above, were exposed to 20 µM AOG plus 20 µM decanal.

HeLa cells = test: HeLa cell cytotoxicity, trypan blue exclusion; assay type: cell-based, human; settings: for HeLa cell toxicity: AOG or dodecanedial alone, Figure 5b; for percentage of cells intact: 400 µM, each alone, two hours, Figure 5a
Experimental: These cells were grown in suspension in Joklik's median supplemented with calf serum, centrifuged and then taken up into Dulbecco's modified Eagles medium (DMEM) without serum. Cell suspensions containing 2-4 x 10⁶ cell/ml in DMEM containing 1% ethanol were incubated at 37°C, with or without decanal. AOG, or combinations thereof. Cell membrane damage was measured by hand counting of cells using trypan blue exclusion as the criterion.

[2] = J Pharm Sci (1971) 60:1128-1131; cited from earlier work
some tumors = settings: on a weight basis; Arnold et al, Proc Natl Acad Sci USA (1979); cited from earlier work
Ox blood erythrocytes [3] = test: Erythrocyte killing with or without 1% serum, light scattering; assay type: cell-based; settings: Bos taurus, 1 h, pH 6.6, 896 µM AOG, Decanal 0µM (Table 4), read-out: % cells killed (0% serum)
Ox blood erythrocytes [4] = test: as above; assay type: cell-based; settings: Bos taurus, Erythrocyte, 1 h, pH 6.6; for mortality at 448 µM: Decanal 0, AOG maintained at 448 µM according to the text (Table 4)
Experimental: (§1) Ox blood erythrocytes were incubated for one hour in PBS at pH 6.6 in the presence or absence of 1% serum at 37°C. […] However, at 4-16 µM DIOG, the percentage of cells killed increased from 4.3 to 60.9. On the other hand, in the absence of serum, 7.2.% cells were killed even without the addition of DIOG, and a steady increase in killing occurred as the DIOG concentration increased, reaching 100% of cells killed at 8 µM.
The AOG concentration was maintained at a high level (448 µM) and the decanal concentration varied from 0-16 µM corresponding the previous DIOG concentration range. In this protocol, similar results were obtained for cells incubated in the absence of serum, but in the presence of 1% serum the curve was slightly displaced so that the cells appeared more protected as shown in Table 4.

Ox blood erythrocytes [5] = test: Erythrocyte killing with or without 1% serum, hemoglobin release; assay type: cell-based; settings: Bos taurus, 1 h, read-out: cell killing measured by hemaglobin release, 1% Serum
Experimental: as §1

S cerevisiae = test: Yeast growth in YPD medium with AOG and decanal; assay type: cell-based; settings: 24 hours
Experimental: The effect of the combination of AOG and decanal on yeast was also determined. S cerevisiae in YPD medium at cell densities of 10⁵-10⁶ cell/ml used as starting concentrations. When no reagents were added to the medium, the cell density increased about 90 fold in 24 hours. […] When 10 µg/ml decanal plus 44 µg/ml AOG were added in combination, all yeast died after 24 hours.

Compound: O=C1CCC(=O)CC1 [CHD, cyclohexane-1,4-dione]
hemolysis at 60000 µM (human erythrocytes; Homo sapiens, Erythrocyte, pH 7.4, 60 mM CHD alone, after 24 hours): 18%
time for which erythrocytes are stable (human erythrocytes): at least 24 hours

Compound: NC(=O)N/N=C/c1ccc([N+](=O)[O-])o1 [NFZ, nitrofurazone]
maximum toxic selectivity (the ratio of CFU/ml at pH 7.4 as compared to CFU/ml at pH 5) [1]: about 100

Compound: NNc1ccccn1 [HP, 2-hydrazino-pyridine]
growth of Monilinia sp (Monilinia sp): substantial growth
toxicity to S. cerevisiae YP52 (S. cerevisiae YP52): nontoxic

Compound: C(=NNc1ccccn1)c1ccccn1 [PCPH, pyridino-2-carboxaldehyde (2-pyridyl hydrazone)]
growth inhibition of S. typhimurium (S. typhimurium; pH 5): inhibited growth
growth inhibition of S. typhimurium (S. typhimurium; pH 7.4): inhibited growth

Compound: O=C1CCCCC1 [cyclohexanone]
lysis (Erythrocytes; 20 mM cyclohexanone plus 10 µM AOG alone, no decanal): do not give lysis
lysis (Erythrocytes; cells first exposed to 20 µM AOG for 2 hours, then 20 µM decanal and 20 mM cyclohexanone): Extensive lysis
lysis (Erythrocytes; pretreatment 2 hours with 20 mM cyclohexanone alone, then 20 µM AOG plus 20 µM decanal): extensive lysis
lysis (Erythrocytes; pretreatment 2 hours with 20 mM cyclohexanone plus 20 µM AOG, then 20 µM decanal added): only slow lysis

Compound: O=CCCCCCCCCCCC=O [dodecanedial]
HeLa cell toxicity (HeLa cells): neither is very toxic alone

Compound: O=Cc1ccccn1 [PC, Pyridine-2-carboxaldehyde]
growth of Monilinia sp (Monilinia sp): substantial growth
toxicity to S. cerevisiae YP52 (S. cerevisiae YP52): nontoxic

Compound: O=CCCCCCCCCC=O [DDD, decanedialdehyde, CHO(CH₂)₈CHO]
lysis (human erythrocytes; either alone at 100 µM): did not result in any observable lysis

Compound: CN(Cc1cnc2nc(N)nc(N)c2n1)c1ccc(C(=O)N[C@@H](CCC(=O)O)C(=O)O)cc1 [methotrexate]
half-life of the drug in serum [2]: about 2 hours

Compound: poly-(L-lysine) [poly-(L-lysine) of Mr 3 kd]
toxicity relative to poly-(L-lysine) having Mr of 70 kd (some tumors): less than 1/20

Compound: CCCCCCCCNC(=N)NN [AOG, N-amino-N'-1-octyl guanidine]
percentage of cells intact (HeLa cells): considerably less dramatic decreases
HeLa cell toxicity (HeLa cells): neither is very toxic alone
mortality at 896 µM (Ox blood erythrocytes [3]): 6.4%
hemolysis at 28 µM (human erythrocytes; Homo sapiens, Erythrocyte, 400 min, pH 7.4, 28 µM, 100 µM or 200 µM AOG alone, after more than 400 minutes, Figure 2): < 5%
lysis (human erythrocytes; either alone at 100 µM): did not result in any observable lysis
mortality at 896 µM (Ox blood erythrocytes [4]; 896 µM AOG, Decanal 0µM (Table 4), read-out: % cells killed (1% serum)): 1.3%
mortality at 448 µM (Ox blood erythrocytes [4]; read-out: % cells killed (0% serum)): 0%
mortality at 448 µM (Ox blood erythrocytes [4]; read-out: % cells killed (1% serum)): 0%
hemolysis at 896 µM (Ox blood erythrocytes [5]; pH 6.6, 896 µM AOG, Decanal Concentration 0 (Table 5)): 0%
hemolysis at 448 µM (Ox blood erythrocytes [5]; pH 6.6, Decanal Concentration 0, 448 µM AOG according to the text (Table 5), comma separates duplicates): 0%
increase in cell density (S cerevisiae; 88 µg/ml AOG): threefold increase

Compound: NNC(=Nc1ccccc1)NN [DAPG, 1,2-diamino-3-phenyl guanididium iodide]
hemolysis at 3000 µM (human erythrocytes; Homo sapiens, Erythrocyte, pH 7.4, 3 mM DAPG alone, after 24 hours): 18%
time for which erythrocytes are stable (human erythrocytes): at least 24 hours

lysis (human erythrocytes; 28 µM or 80 µM decanal alone, after more than 400 minutes, Figure 2): less than 5%
Compound: CCCCCCCCCC=O [decanal]
percentage of cells intact (HeLa cells): considerably less dramatic decreases
increase in cell density (S cerevisiae; 20 µg/ml decanal): 11 fold
